# Data from ChEMBL document CHEMBL1201862, “PubChem BioAssay data set” (2004).
# Activity calls are given as the source filed them.
# Columns and labels:
# HeLa = assay: ATP-based viability loss in HeLa cells – cell-based, CellTiter-Glo luminescence, cherry-pick samples, cytotoxicity control for MITF activator project, dose response (AID 540259); format: functional; details: Homo sapiens
# Vero [1] = assay: cells; format: functional; details: Chlorocebus sabaeus
# [2] = biological target: Heat shock protein HSP 90-alpha (Homo sapiens, UniProt P07900); format: functional, organism-based
# [3] = biological target: T1, Ubiquitin-conjugating enzyme E2 N (Homo sapiens, UniProt P61088); format: functional;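 also: Dose-response confirmation in a TR-FRET assay detecting UBC13-driven polyubiquitin chain formation, inhibition measured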
# T1 sequence (P61088 whole entry): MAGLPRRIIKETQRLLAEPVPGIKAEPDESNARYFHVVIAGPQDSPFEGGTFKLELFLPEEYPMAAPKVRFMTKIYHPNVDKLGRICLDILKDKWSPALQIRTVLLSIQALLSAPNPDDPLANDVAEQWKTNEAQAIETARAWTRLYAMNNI
# [4] = Luminescence Cell-Based Dose Retest to Confirm Inhibitors of Cancer Stem Cells. [Related pubchem assays (depositor defined):AID2717, AID2721]; format: functional; details: Homo sapiens
# [5] = microbe, parasite or virus in culture; format: functional; details: Mycobacterium tuberculosis
# BJ [6] = assay: cells; format: functional, cell-based; details: Homo sapiens
# BJ [7] = assay: BJ-TERT fibroblast viability loss – cell-based, RAS-independent, luminescence, dose response (AID 1933); format: functional; details: Homo sapiens
# Vero [8] = assay: cells; format: functional, cell-based; details: Chlorocebus sabaeus
# BJ [9] = assay: BJ-TERT-LT-ST fibroblast viability loss – cell-based, RAS-independent, luminescence, dose response (AID 1935); format: functional; details: Homo sapiens;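 also: BJ fibroblasts immortalized with TERT plus LT and ST oncogenes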
# [10] = DRD fibroblast viability loss – cell-based, non-viral oncogenic, luminescence, dose response (AID 1934); format: functional; details: Homo sapiens
# Vero [11] = assay: mammalian cell viability reduction – secondary assay, cytotoxicity control for West Nile virus antiviral project, dose response (AID 1650); format: functional; details: Chlorocebus sabaeus
# Albumin = Albumin (Bos taurus, UniProt P02769); assay: Counterscreen for inhibitors of T-cell receptor (TCR)-CD3 interaction: Fluorescence-based biochemical high throughput dose response assay to identify inhibitors of T-cell receptor (TCR)-CD3 interaction using a TAMRA-labeled BSA probe.; format: functional
# H9c2 = assay: cells; format: functional, cell-based; details: Rattus norvegicus, H9c2, Myocardium;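 also: confirmatory concentration-response retest of ultra-high-throughput screening hits for modulation of myocardial damage; cell death induced by hydrogen peroxide oxidative stress; compound pretreatment for 60 min then peroxide exposure for 2 h; potency is for protecting the cells against peroxide damage rather than for killing them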
# [12] = fluconazole-exposed Candida albicans growth modulators – fluorescence, retest, confirmation (AID 2467); format: functional, cell-based
# [13] = NIH-3T3 fibroblast cytotoxicity, dose response, cytotoxicity control, cell-based, fluorescence, Alamar Blue, secondary assay (AID 2327); format: functional;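 also: NIH-3T3 mouse fibroblasts cultured with fluconazole at 8 µg/mL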
# [14] = biological target: T2, Mannose-6-phosphate isomerase (Homo sapiens, UniProt P34949); assay: phosphomannose isomerase inhibition – biochemical, fluorescence intensity, confirmation (AID 1535)
# T2 sequence (P34949 whole entry): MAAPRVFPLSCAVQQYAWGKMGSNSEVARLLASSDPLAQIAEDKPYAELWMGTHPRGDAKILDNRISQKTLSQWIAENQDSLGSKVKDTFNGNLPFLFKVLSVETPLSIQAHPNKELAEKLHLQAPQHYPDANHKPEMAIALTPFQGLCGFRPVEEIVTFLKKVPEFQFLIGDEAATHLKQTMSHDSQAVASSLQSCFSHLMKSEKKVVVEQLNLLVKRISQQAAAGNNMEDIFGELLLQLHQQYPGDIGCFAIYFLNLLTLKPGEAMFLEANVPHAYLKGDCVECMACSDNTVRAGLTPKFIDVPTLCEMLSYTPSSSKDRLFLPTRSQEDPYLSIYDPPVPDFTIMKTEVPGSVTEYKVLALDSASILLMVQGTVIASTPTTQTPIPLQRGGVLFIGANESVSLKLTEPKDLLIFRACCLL
# [15] = biological target: T3, Tyrosine-protein phosphatase non-receptor type 11 (Homo sapiens, UniProt Q06124); assay: PTPN11 enzyme inhibitors – biochemical, selectivity assay for STEP inhibitor project, dose response (AID 602367); format: functional; details: read-out: IC50_Mean
# T3 sequence (Q06124 whole entry): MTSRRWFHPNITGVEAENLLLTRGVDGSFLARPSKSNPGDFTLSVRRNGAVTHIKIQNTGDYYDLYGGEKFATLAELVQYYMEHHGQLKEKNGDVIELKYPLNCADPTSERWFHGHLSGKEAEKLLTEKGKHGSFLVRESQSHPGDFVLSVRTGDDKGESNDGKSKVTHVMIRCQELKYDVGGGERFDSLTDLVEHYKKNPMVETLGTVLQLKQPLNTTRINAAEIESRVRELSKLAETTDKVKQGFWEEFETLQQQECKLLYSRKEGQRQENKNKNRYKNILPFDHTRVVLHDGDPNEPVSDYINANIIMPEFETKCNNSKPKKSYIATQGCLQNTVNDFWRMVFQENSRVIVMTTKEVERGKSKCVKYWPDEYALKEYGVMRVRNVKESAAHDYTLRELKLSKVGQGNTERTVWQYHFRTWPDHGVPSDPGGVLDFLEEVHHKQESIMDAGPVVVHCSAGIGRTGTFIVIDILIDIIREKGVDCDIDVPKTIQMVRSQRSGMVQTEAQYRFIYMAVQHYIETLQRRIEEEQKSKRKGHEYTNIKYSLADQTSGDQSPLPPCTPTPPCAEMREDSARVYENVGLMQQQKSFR
# [16] = biological target: T4, Carboxy-terminal domain RNA polymerase II polypeptide A small phosphatase 1 (Homo sapiens, UniProt Q9GZU7); assay: CTDSP1 inhibitors, concentration-response, biochemical, absorbance readout, ultra-high-throughput screen actives (AID 540297); format: functional
# T4 sequence (Q9GZU7 whole entry): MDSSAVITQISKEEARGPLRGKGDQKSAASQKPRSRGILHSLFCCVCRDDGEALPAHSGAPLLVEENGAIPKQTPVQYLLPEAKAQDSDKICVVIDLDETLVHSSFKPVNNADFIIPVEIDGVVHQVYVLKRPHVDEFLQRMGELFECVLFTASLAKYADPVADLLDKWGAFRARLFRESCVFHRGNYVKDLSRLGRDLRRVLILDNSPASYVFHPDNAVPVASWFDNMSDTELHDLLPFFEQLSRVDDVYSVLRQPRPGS
# [17] = biological target: Dual specificity protein phosphatase 3 (Homo sapiens, UniProt P51452); assay: VHR phosphatase inhibition, dose response, selectivity assay for STEP inhibitor project, biochemical (AID 602374); format: functional; details: read-out: IC50_Mean
# [18] = biological target: T5, Tyrosine-protein phosphatase non-receptor type 5 (Homo sapiens, UniProt P54829); assay: PTPN5 enzyme inhibition – biochemical, fluorescence intensity, uHTS hits, confirmation (AID 602372); format: functional; details: read-out: IC50_Mean
# T5 sequence (P54829 whole entry): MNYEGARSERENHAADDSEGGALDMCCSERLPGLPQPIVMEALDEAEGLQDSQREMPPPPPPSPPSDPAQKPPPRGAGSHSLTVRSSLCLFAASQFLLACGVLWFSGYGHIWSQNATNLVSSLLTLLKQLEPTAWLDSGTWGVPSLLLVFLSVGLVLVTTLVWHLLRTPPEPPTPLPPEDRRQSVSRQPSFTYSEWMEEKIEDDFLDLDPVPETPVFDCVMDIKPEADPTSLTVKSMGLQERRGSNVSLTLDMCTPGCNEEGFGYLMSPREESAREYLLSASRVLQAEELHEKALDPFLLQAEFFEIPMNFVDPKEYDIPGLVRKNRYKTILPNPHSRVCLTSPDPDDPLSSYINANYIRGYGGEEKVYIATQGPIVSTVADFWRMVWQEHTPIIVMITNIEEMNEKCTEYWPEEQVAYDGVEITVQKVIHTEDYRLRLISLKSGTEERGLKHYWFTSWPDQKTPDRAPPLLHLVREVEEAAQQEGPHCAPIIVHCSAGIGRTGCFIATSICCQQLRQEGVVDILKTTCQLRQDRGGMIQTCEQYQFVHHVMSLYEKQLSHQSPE
# Vero [19] = assay: viability of Vero cells under compound – cytotoxicity control for flavivirus capping enzyme inhibitors (AID 588742); format: functional; details: Chlorocebus sabaeus
# Genome polyprotein = Genome polyprotein (dengue virus type 2, UniProt P29990); assay: flavivirus cap methylation enzyme inhibition – biochemical, confirmation dose response, primary screen (AID 588689); format: functional
# [20] = biological target: Induced myeloid leukemia cell differentiation protein Mcl-1 (Homo sapiens, UniProt Q07820); format: functional
# Nonstructural protein 1 = Nonstructural protein 1 (Influenza A virus, UniProt Q194T2); format: functional, Influenza A virus (A/California/07/2009(H1N1))
# [21] = Vero E6 cell cytotoxicity, dose response, cytotoxicity control for non-replicating M. tuberculosis project, secondary assay (AID 492998); format: functional, VeroE6; details: Vero C1008
# cells [22] = format: functional
# [23] = THP-1 cell cytotoxicity, dose response, cytotoxicity control for non-replicating M. tuberculosis project (AID 489025); format: functional
# Streptococcus = assay: GAS UMAA2166 growth inhibition – luminescence, BacTiterGlo, counter-screen for streptokinase expression inhibitor project, dose response (AID 1915); format: functional, organism-based;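 also: potency for reduction of bacterial viability or growth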
# Streptokinase A = biological target: T6, Streptokinase A (Streptococcus pyogenes serotype M1, UniProt P10520); assay: viability-normalized secreted streptokinase activity reduction – plasminogen activation absorbance, OD405, dose response (AID 1914); format: functional, Streptococcus pyogenes M1 GAS;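 also: secreted streptokinase activity via plasminogen activation per viability signal from cell pellet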
# T6 sequence (P10520 whole entry): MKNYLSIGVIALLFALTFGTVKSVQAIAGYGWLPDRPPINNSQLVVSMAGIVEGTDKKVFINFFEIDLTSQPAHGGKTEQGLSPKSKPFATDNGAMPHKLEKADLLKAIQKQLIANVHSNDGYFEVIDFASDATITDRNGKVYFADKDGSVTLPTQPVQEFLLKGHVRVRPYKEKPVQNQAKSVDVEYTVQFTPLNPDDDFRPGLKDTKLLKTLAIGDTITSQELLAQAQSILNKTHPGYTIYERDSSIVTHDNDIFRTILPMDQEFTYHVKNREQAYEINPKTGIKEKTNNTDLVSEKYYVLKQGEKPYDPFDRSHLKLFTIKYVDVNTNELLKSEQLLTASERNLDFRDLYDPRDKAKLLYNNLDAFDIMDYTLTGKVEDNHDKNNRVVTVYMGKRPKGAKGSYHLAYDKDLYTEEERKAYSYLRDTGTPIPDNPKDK
# [24] = tested on: Streptococcus sp. 'group A'; assay: Streptococcus pyogenes SK(-)GAS viability under kanamycin – luminescence, BacTiterGlo, confirmation, counter-screen for streptokinase expression inhibitor project, dose response (AID 1900); format: functional, organism-based
# cells [25] = format: functional, cell-based
# cells [26] = format: functional, cell-based; remark: listed apart in the source
# Cytochrome P450 3A4 = Cytochrome P450 3A4 (Homo sapiens, UniProt P08684); details: Potency;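 also: confirmatory qHTS run detecting inhibitors and substrates of CYP3A4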
# Cytochrome P450 3A4, sequence (P08684 whole entry): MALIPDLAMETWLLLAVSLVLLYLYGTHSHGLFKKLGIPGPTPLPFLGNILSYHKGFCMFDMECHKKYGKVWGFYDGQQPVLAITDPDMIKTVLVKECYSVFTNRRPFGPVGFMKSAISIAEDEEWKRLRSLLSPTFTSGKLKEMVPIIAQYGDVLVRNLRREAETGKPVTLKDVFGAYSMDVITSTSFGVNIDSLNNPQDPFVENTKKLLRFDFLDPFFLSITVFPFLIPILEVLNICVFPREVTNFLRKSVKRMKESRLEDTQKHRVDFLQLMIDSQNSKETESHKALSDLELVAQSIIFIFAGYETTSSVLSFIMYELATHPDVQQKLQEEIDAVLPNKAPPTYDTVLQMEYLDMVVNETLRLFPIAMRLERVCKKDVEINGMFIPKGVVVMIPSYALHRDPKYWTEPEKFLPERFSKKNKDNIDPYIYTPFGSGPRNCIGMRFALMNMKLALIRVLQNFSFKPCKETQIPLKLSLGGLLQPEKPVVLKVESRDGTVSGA
# Albumin, sequence (P02769 whole entry): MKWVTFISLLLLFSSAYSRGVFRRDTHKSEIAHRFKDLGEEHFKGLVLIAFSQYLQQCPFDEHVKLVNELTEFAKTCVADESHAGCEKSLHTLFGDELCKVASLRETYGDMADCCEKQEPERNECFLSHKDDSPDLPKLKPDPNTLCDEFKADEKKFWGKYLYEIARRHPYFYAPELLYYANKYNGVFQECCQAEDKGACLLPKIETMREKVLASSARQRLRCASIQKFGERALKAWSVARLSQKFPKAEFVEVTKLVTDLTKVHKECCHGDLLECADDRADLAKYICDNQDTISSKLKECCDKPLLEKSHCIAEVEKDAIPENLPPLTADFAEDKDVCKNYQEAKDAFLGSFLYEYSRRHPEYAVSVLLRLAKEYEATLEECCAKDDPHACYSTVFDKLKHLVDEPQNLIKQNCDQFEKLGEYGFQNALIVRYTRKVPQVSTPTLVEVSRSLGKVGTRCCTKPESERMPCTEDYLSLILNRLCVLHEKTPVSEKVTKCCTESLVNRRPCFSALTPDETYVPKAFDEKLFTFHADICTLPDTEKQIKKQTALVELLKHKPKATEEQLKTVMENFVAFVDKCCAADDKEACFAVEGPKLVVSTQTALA
# Nonstructural protein 1, sequence (Q194T2 whole entry): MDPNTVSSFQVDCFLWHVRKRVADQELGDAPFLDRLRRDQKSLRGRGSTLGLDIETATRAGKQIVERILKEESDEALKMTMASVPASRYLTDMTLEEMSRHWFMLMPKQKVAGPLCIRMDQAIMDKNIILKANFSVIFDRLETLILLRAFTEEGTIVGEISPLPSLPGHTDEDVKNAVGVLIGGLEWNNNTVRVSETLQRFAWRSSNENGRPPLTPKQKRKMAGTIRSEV
# Induced myeloid leukemia cell differentiation protein Mcl-1, sequence (Q07820 whole entry): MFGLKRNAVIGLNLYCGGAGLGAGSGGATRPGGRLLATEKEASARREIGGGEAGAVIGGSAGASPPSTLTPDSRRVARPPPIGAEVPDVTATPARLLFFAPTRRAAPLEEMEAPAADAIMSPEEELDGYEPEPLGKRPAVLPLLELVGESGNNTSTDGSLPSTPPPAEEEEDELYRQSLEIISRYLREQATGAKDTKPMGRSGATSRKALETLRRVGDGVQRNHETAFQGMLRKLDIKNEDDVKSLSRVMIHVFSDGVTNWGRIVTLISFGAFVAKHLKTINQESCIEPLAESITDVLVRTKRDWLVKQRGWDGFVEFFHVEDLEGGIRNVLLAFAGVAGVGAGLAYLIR
# Dual specificity protein phosphatase 3, sequence (P51452 whole entry): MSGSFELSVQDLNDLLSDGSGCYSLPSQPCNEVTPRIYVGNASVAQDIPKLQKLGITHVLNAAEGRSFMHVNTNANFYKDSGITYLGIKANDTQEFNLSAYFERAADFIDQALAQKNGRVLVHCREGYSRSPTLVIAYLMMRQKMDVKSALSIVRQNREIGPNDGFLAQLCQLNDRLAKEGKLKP
# Genome polyprotein, sequence (P29990 2492-3391 limits assumed): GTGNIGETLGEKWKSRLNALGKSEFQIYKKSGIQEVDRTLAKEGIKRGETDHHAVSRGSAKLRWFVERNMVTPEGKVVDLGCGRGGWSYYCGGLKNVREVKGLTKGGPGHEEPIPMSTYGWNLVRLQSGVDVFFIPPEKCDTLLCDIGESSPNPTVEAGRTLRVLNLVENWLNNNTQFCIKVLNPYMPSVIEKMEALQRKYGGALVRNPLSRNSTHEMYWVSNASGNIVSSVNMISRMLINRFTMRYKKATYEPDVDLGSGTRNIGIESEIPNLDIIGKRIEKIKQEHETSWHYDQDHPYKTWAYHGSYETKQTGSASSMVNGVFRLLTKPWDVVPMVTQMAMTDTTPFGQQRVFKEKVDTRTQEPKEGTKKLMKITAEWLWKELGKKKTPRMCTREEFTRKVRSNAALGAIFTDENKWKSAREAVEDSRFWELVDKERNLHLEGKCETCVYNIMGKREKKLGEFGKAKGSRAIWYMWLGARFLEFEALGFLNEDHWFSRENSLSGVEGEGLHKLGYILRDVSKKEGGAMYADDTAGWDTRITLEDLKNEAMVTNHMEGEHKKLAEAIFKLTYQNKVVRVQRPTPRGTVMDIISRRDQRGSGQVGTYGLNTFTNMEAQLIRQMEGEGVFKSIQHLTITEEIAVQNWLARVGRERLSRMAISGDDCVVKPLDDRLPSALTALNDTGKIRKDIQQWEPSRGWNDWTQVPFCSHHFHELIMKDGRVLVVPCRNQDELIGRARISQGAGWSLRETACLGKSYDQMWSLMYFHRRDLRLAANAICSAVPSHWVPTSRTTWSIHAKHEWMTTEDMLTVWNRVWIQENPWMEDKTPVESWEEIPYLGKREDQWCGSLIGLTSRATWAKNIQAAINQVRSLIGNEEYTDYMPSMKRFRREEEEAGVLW
compound,measurement,setting,value
COc1cc(CNCc2ccccn2)ccc1OCc1ccc(Cl)c(Cl)c1,AC50,HeLa,45.5 µM (active)
same,CC50,Vero [1],> 25 µM (active)
COc1ccccc1OCc1cc(C(=O)N2CCN(C)C(c3ccccc3)C2)no1 (centres undefined),AC50,[2],4.78 µM (active)
CC(C)(C)c1cc(-c2nc(N)nc(N)n2)c(O)c(C(C)(C)C)c1,IC50,[3],> 20 µM (inactive)
same,AC50,[4],3.65 µM (active)
same,CC50,[5],38.3 µM (active)
same,AC50,[2],28.9 µM (active)
CCc1cc(C(=O)N2CCc3c([nH]c4ccccc34)C2c2ccc(OC)cc2F)no1 (centres undefined),EC50,BJ [6],> 150 µM (not active)
same,EC50,BJ [7],28.3 µM (active)
same,IC50,Vero [8],1.74 µM (active)
same,EC50,BJ [9],> 150 µM (not active)
same,EC50,[10],> 150 µM (inconclusive)
same,CC50,Vero [11],24.4 µM (active)
same,CC50,Vero [1],20 µM (active)
Cc1ccc(CS/C(Nc2ccccc2C)=C(\C#N)C(=O)NCc2ccco2)c(C)c1,CC50,Vero [11],15.2 µM (active)
O=C(CSc1nnc(-c2ccccc2)n1Cc1ccccc1)NNC(=O)c1ccccc1O,IC50,Albumin,> 94.1 µM (inactive)
same,IC50,H9c2,33.7 µM (inactive)
COc1ccc(N(C(=O)c2ccncc2)S(=O)(=O)c2ccccc2)cc1,AC50,[2],1.77 µM (active)
COc1ccc(C)cc1NC(=O)NNC(=O)c1cc2ccccc2cc1O,IC50,Albumin,> 94.1 µM (inactive)
same,EC50,[12],> 38 µM (not active)
same,EC50,[13],22.7 µM (inconclusive)
CC(C)(C)c1ccc(-c2cc(C(=O)NNC(=O)Nc3ccccc3)c3ccccc3n2)cc1,AC50,HeLa,69.9 µM (active)
COc1ccc(/N=c2\ssnc2Cl)cn1,IC50,[14],29.8 µM (active)
CCOc1ccc(/C=N/NC(=O)c2cc3c(OC)cccc3[nH]2)cc1,IC50,[15],1.65 µM (active)
same,IC50,[16],3.08 µM (active)
same,IC50,[17],1.85 µM (active)
same,IC50,[18],13.2 µM (active)
Cc1[nH]c2ccc(C(=O)N3CCN(c4cccc(Cl)c4)CC3)cc2c1C,AC50,[2],7.72 µM (active)
O=[N+]([O-])c1cc(Cl)cc(/C=N/NC(=S)Nc2ccc(S(=O)(=O)N3CCOCC3)cc2)c1O,CC50,Vero [19],38.3 µM (active)
same,IC50,Genome polyprotein,> 100 µM (active)
same,IC50,Albumin,> 94.1 µM (inactive)
same,EC50,[12],> 38 µM (not active)
same,EC50,[13],> 160 µM (inactive)
same,IC50,[20],3.47 µM (active)
same,IC50,Nonstructural protein 1,3.52 µM (active)
COC(=O)c1ccc2[nH]c(C3(O)CCCCC3)c(C)c2c1,AC50,HeLa,44.3 µM (active)
O=C(N/N=C/c1cccc2cccnc12)[C@H]1C[C@@H]1c1ccccc1,CC50,[21],> 20 µM (active)
same,IC50,cells [22],33.1 µM (active)
same,CC50,[5],> 40 µM (active)
same,IC50,H9c2,11.2 µM (active)
same,CC50,[23],32.9 µM (active)
O=C(NC(=S)NNC(=O)c1cccs1)c1ccccc1,EC50,Streptococcus,21.2 µM (active)
same,EC50,Streptokinase A,> 150 µM (not active)
same,IC50,Albumin,> 94.1 µM (inactive)
same,EC50,[24],3.79 µM (active)
Cc1cc(/N=c2\ssnc2Cl)n[nH]1,IC50,[14],5.94 µM (active)
Cc1c(/C=N/NC(N)=O)c2ccccn2c1C(=O)c1ccncc1,EC50,cells [25],> 350 µM (not active)
same,EC50,cells [26],> 350 µM (not active)
Cc1ccc(O)c(/N=N\c2ccccc2)n1,AC50,Cytochrome P450 3A4,5.01 µM (inconclusive)
